Here are results for two compounds from US20120041211A1, “NOVEL PROCESS FOR PREPARING CARBOXY-CONTAINING PYRAZOLEAMIDO COMPOUNDS 597” (priority 2009, published 2012).

This data set can be described thus: Stability of solvate form on exposure to the lab atmosphere. Format: physicochemical. Particulars: 21° C., 30% relative humidity, material from wet suspension. Here is the method:
20 mg of Form 4 was added to a small vessel. 0.711 ml of Form 4 saturated MeOH solution was added to the vessel making a suspension. The suspension was stirred for 7 days at 25° C. Thereafter the suspension was stirred at 21° C. for 1½ months. The wet suspension was analysed by XRPD (Cu-source) giving substantially the following d-values. […] For diffractogram see FIG. 8.
20 mg of Form 4 was added to a small vessel. 0.711 ml MTBE was added to the vessel making a suspension. The suspension was stirred for 7 days at 25° C. The wet suspension was analysed by XRPD (Cu-source) giving substantially the following d-values.

For `CC(C)(C)c1c(C(=O)NC2C3CC4CC(C3)CC2C4)cnn1-c1ccc(C(=O)O)cc1` (centres unmarked) [MTBE Solvate, 4-[4-(2-adamantylcarbamoyl)-5-tert-butyl-pyrazol-1-yl]benzoic acid], the “stability / form transformation on exposure to the lab atmosphere” value is listed as “transforms to Hydrate”. `CC(C)(C)c1c(C(=O)NC2C3CC4CC(C3)CC2C4)cnn1-c1ccc(C(=O)O)cc1` (centres unmarked) [MeOH Solvate, 4-[4-(2-adamantylcarbamoyl)-5-tert-butyl-pyrazol-1-yl]benzoic acid]: the “stability / form transformation on exposure to the lab atmosphere” value was “rapidly transforms to Form 3”.
